{"source": "patent US20220062218A1", "about": "“COMPOSITIONS AND METHODS FOR TREATING DIABETES” (ENZYCHEM LIFESCIENCES, priority 2019, published 2022)", "assay_type_in_all_cases": "cell-based, rat", "key": {"[1]": {"test_system": "apoptosis-related proteins BCL-2, BAX, cytochrome c, caspase-3", "test": "Expression of apoptosis-related proteins (BCL-2, BAX, cytochrome c, caspase-3) by western blotting in STZ-treated cells", "method": "(§1) In addition, to perform a special protein detection test (Western Blotting), cells were lysed by RIPA buffer (LPS Solution, Daejeon, Korea) supplemented with protease and phosphatase inhibitors (Thermo Scientific, Waltham, Mass., USA). Proteins were separated on 12% sodium dodecyl sulfate-polyacrylamide gels and transferred to polyvinylidene difluoride membranes (EMD Millipore, Darmstadt, Germany). The membranes were blocked with 5% BSA for 1 h and incubated with primary antibodies to GLUT2 (bs-0351r, Bioss, Woburn, Mass., USA), RAC1 (03589, EMD Millipore), BAX (B51030, Bioworld Tech, St. Louis Park, Minn., USA), BCL-2 (B51031, Bioworld), Cytochrome c (#4272, Cell Signaling Technology, Danvers, Mass., USA), Caspase-3 (#9662, Cell Signaling Technology), and Na+-K+ ATPase (#3010S, Cell Signaling Technology). After three washes in PBST, membranes were incubated with HRP-conjugated secondary antibodies (Enzo Life Sciences, dilution 1:5,000) for 1 h at room temperature. Protein bands were detected using ECL reagent (Thermo Scientific) and then visualized on films. Expression of apoptosis-related proteins like Bcl-2, Bax, cytochrome c, caspase-3 was analyzed by western blotting, Bax/Bcl-2 ratio is represented by a bar graph (FIG. 2-C). Data are presented as mean ±SD (***P<0.001 vs. control, #P<0.05, ##P<0.005 vs. STZ)."}, "INS-1 cells [2]": {"test_system": "INS-1 cells", "test": "Intracellular ROS generation in STZ-treated cells, flow cytometry with DCFH-DA and immunofluorescence", "method": "For intracellular ROS analyses after administering PLAG, cells were incubated with 2 μM of DCFH-DA (2′,7′-dichlorodihydrofluorescein diacetate, Invitrogen, Carlsbad, CA, USA) for 30 min at 37 ° C. The analysis was performed using a BD FACS Verse flow cytometer (BD Biosciences) (FIGS. 4A and 4B), and expression of reactive oxygen species (ROS) was observed by immunofluorescence assay (FIG. 4C). We further examined cell apoptosis in cells co-treated with three types of ROS inhibitor (Apocynin, MitoTEMPO, NAC) to examine the association of intracellular ROS generation with pancreatic beta cell apoptosis. […] Apocynin (NADPH oxidase inhibitor), MitoTEMPO (mitochondrial ROS inhibitor), and N-acetyl-L-cysteine (NAC, an overall ROS inhibitor) were used as the ROS inhibitor. Data are presented as mean ±SD(* P<0.05, ** P<0.005, *** P <0.001 vs control, #P<0.05, ## P<0.005 vs STZ).\n(§2) After treatment with PLAG and PLH(1-palmitoyl-2-linoleoyl-3-hydroxyl-rac-glycerol), apoptosis, intracellular ROS generation and glucose uptake were analyzed by flow cytometry (FIG. 7-B to 7-E). In addition, expression of GLUT2 in membrane fractions was analyzed by Western blotting (FIG.7-F). Data are presented as mean ±SD. ***P<0.001 vs. control, #P<0.05, ##P<0.005 vs. STZ. N.S.: No significance.\nCells were collected by trypsinization and washed with ice-cold PBS. For cell apoptosis analyses, INS-1 cells were incubated with annexin V (BD Biosciences, Franklin Lakes, N.J., USA) for 10 min at room temperature, and stained with 7-AAD (BD Biosciences). For intracellular reactive oxygen species (ROS) analyses, cells were incubated with 2 μM of DCFH-DA (2′,7′-dichlorodihydrofluorescein diacetate, Invitrogen, Carlsbad, Calif., USA) for 30 min at 37° C. The analysis was performed using a BD FACS Verse flow cytometer (BD Biosciences)."}, "INS-1 cells [3]": {"test_system": "INS-1 cells", "test": "Glucose uptake assay with 2-NBDG in INS-1 cells (flow cytometry, immunofluorescence)", "method": "2-[N-(7-nitrobenz-2-oxa-1,3-diazol-4-yl)amino]-2-deoxy-D-glucose (2-NBDG, N13195, Thermo Scientific) was used for glucose uptake assays. Glucose uptake assays were performed using 2-NBDG conjugated with fluorescent dye. Intracellular 2-NBDG was measured at 60 min (FIG. 5A) and successively calculated from 5 min to 480 min after 2-NBDG treatment by How cytometry (FIG. 5B). Serum-containing complete medium was removed, and INS-1 cells were washed in PBS. The cells were cultured in glucose-free culture media for 1 h at 37° C. and then treated with 2-NBDG. Intracellular fluorescence was measured using a BD FACS Verse flow cytometer (BD Biosciences).\nIntracellular 2-NBDG expression were also observed using immunofluorescence assay (FIG.5-C). Data are presented as mean ±SD. *P<0.05, **P<0.005, ***P<0.001 vs. control, #P<0.05, ##P<0.005 vs. STZ.\nas §2"}, "RAC1": {"test_system": "RAC1", "test": "RAC1 expression in membrane fractions of STZ-treated cells by western blotting", "conditions": "time course", "method": "as §1, with “STZ). […]” for “STZ).”"}, "[4]": {"test_system": "clathrin- or caveolin-silenced INS-1 cells", "test": "Cell apoptosis and ROS generation in clathrin or caveolin siRNA-transfected cells treated with STZ", "method": "GLUT2-silenced cells were prepared to clarify the role of GLUT2 in STZ-treated cells. INS-1 cells were transfected with GLUT2 siRNA to determine whether GLUT2 expression is related to STZ-induced cell apoptosis and ROS generation.\nApoptosis of pancreatic beta cells, intracellular ROS generation and glucose intake was analyzed by flow cytometry using GLUT2 siRNA transfected cells (FIGS. 6-A to 6-C). The effect of PLAG on (D) cell apoptosis and (E) ROS generation in Endocytosis-related protein, clathrin or caveolin siRNA-transfected cells was analyzed (FIG. 6D and 6-E). Data are presented as mean ±SD. **P<0.005, ***P<0.001 vs. control, ##P<0.005, #IIIIP<0.001 vs. STZ group. N.S.: No significance. Transfection with siRNAs was performed using the HiPerFect reagent (Qiagen, Hilden, Germany), according to the manufacturer's protocol. Specific siRNAs directed against GLUT2, clathrin, and caveolin were obtained from Santa Cruz Biotechnology (Dallas, Tex., USA)."}}}
{"smiles": "CCCCC/C=C\\C/C=C\\CCCCCCCC(=O)OC(COC(C)=O)COC(=O)CCCCCCCCCCCCCCC", "note": "(racemic) [PLAG, 1-palmitoyl-2-linoleoyl-3-acetyl-rac-glycerol]", "values": [{"measurement": "expression of anti-apoptotic protein BCL-2", "setting": "[1]; decreased by STZ", "result": "recovered by PLAG"}, {"measurement": "expression of apoptosis-related proteins BAX, cytochrome c, and caspase-3", "setting": "[1]; increased by STZ", "result": "attenuated by PLAG addition"}, {"measurement": "decrease of ROS generation, PLAG vs PLH", "setting": "INS-1 cells [2]; Example 8", "result": "more effective than PLH"}, {"measurement": "intracellular ROS (dose dependence)", "setting": "INS-1 cells [2]; flow cytometry", "result": "dose-dependently decreased"}, {"measurement": "intracellular ROS (time course)", "setting": "INS-1 cells [2]; flow cytometry and immunofluorescence", "result": "attenuated"}, {"measurement": "glucose uptake (2-NBDG time course)", "setting": "INS-1 cells [3]; 5 min to 480 min after 2-NBDG treatment, flow cytometry, vs 2-NBDG alone", "result": "glucose uptake was attenuated"}, {"measurement": "glucose uptake (2-NBDG), PLAG vs PLH", "setting": "INS-1 cells [3]; Example 8, flow cytometry", "result": "2-NBDG was slowly absorbed"}, {"measurement": "intracellular 2-NBDG fluorescence intensity", "setting": "INS-1 cells [3]; at 60 min, flow cytometry", "result": "lower fluorescence intensity"}, {"measurement": "intracellular 2-NBDG (immunofluorescence)", "setting": "INS-1 cells [3]; time course vs 2-NBDG-only treated group", "result": "increased more slowly"}, {"measurement": "expression of RAC1 in membrane fractions", "setting": "RAC1", "result": "attenuated after a slight increase in 15 min"}, {"measurement": "apoptosis or ROS generation in clathrin- or caveolin-silenced cells", "setting": "[4]", "result": "did not influence apoptosis or ROS generation"}]}
